Test results: patent US20250230155A1 (Vanderbilt University, priority 2021, published 2025)

Molecular target: T1, human mAChR M4 (Homo sapiens, UniProt P08173)
T1 construct: expressed in transfected cells
T1 sequence (P08173 1-479): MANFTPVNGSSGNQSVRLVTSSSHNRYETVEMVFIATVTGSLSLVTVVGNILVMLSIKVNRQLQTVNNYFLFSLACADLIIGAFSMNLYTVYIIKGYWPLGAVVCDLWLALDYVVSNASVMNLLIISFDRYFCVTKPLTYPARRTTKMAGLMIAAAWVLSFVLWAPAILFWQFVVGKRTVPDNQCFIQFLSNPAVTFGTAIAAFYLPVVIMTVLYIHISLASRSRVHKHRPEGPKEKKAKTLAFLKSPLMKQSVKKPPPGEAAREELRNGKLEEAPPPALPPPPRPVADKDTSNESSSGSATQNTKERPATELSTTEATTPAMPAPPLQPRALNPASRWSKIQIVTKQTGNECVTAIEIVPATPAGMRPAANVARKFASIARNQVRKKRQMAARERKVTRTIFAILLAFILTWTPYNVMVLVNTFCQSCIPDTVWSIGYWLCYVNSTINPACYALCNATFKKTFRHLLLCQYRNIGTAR
Assay: mAChR M4 cell-based functional assay (calcium mobilization, CHO-K1 hM4-Gqi5 cells)
Conditions: for Emax: CHO-K1; for EC50: positive allosteric modulator activity, increase in the EC20 acetylcholine response, CHO-K1 hM4-Gqi5 cells, read-out: Human M4 EC50; for Emax at 30 µM: CHO-K1, % ACh maximum at 30 μM, human M4
Method in brief: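 Fluorescent calcium read-out (Fluo-4 AM, FDSS, 1 Hz) in hM4-Gqi5 CHO-K1 cells, 11-point 1:3 compound series. Agonism scored on compound addition, PAM activity as increase of the 144 s EC20 acetylcholine response, antagonism as decrease of the 230 s EC80 response; four-parameter logistic fits give EC50 and Emax.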

Row | EC50 [nM] | Emax at 30 µM [%] | SMILES | Emax [%]
1 | 3250 | 67 | Cc1cc(C(=O)NCc2ccc3ncnn3c2)cnc1N1CCc2ncccc2C1 [compound 151, 6-(7,8-dihydro-5H-1,6-naphthyridin-6-yl)-5-methyl-N-([1,2,4]triazolo[1,5-a]pyridin-6-ylmethyl)pyridine-3-carboxamide] | 
2 | 991 |  | Fc1ccccc1Oc1cnc2c(c1)CN(c1nc(Cl)nc3c1COC3)CC2 [compound 290, 2-chloro-4-(3-(2-fluorophenoxy)-7,8-dihydro-1,6-naphthyridin-6(5H)-yl)-5,7-dihydrofuro[3,4-d]pyrimidine] | 
3 | 3290 |  | FC(F)(F)c1cnc2c(c1)CN(c1nc(Cl)nc3c1COC3)CC2 [compound 281, 2-chloro-4-(3-(trifluoromethyl)-7,8-dihydro-1,6-naphthyridin-6(5H)-yl)-5,7-dihydrofuro[3,4-d]pyrimidine] | 
4 | 137 | 92 | Cc1nc(Cl)c(C)c(N2CCc3ncc(-c4sc(C)nc4C)cc3C2)n1 [compound 198, 5-[6-(6-chloro-2,5-dimethyl-pyrimidin-4-yl)-7,8-dihydro-5H-1,6-naphthyridin-3-yl]-2,4-dimethyl-thiazole] | 
5 | 211 | 101 | Cc1ncc(-c2cnc3c(c2)CN(c2ncc(C#N)cc2C)CC3)s1 [compound 185, 5-methyl-6-[3-(2-methylthiazol-5-yl)-7,8-dihydro-5H-1,6-naphthyridin-6-yl]pyridine-3-carbonitrile] | 
6 | 1620 | 66 | FC(F)(F)c1cnc2c(c1)CN(c1nc(Cl)nc3c1CCCC3)CC2 [compound 264, 2-chloro-4-(3-(trifluoromethyl)-7,8-dihydro-1,6-naphthyridin-6(5H)-yl)-5,6,7,8-tetrahydroquinazoline] | 
7 | 8310 | 39 | Cc1nc(Cl)c(C)c(N2Cc3cc(C(F)(F)F)cnc3C(C)(C)C2)n1 [compound 257, 6-(6-chloro-2,5-dimethylpyrimidin-4-yl)-8,8-dimethyl-3-(trifluoromethyl)-5,6,7,8-tetrahydro-1,6-naphthyridine] | 
8 | 302 |  | Clc1nc2c(c(N3CCc4ncc(N5CCCn6nccc65)cc4C3)n1)COC2 [compound 282, 2-chloro-4-(3-(6,7-dihydropyrazolo[1,5-a]pyrimidin-4(5H)-yl)-7,8-dihydro-1,6-naphthyridin-6(5H)-yl)-5,7-dihydrofuro[3,4-d]pyrimidine] | 
9 | 420 | 91 | Cc1cc(C#N)cnc1N1CCc2ncc(-c3cccc(F)n3)cc2C1 [compound 168, 6-[3-(6-fluoro-2-pyridyl)-7,8-dihydro-5H-1,6-naphthyridin-6-yl]-5-methyl-pyridine-3-carbonitrile] | 
10 | 63 | 92 | Cc1nc(Cl)c(C)c(N2CCc3ncc(-c4c(C)noc4C)cc3C2)n1 [compound 197, 4-[6-(6-chloro-2,5-dimethyl-pyrimidin-4-yl)-7,8-dihydro-5H-1,6-naphthyridin-3-yl]-3,5-dimethyl-isoxazole] | 

More lines, now with the values behind:

Row | SMILES | EC50 [nM] | Emax at 30 µM [%] | Emax [%]
11 | Cc1cc(C#N)cnc1N1CCc2ncc(Br)cc2C1 [Example 594, 6-(3-bromo-7,8-dihydro-1,6-naphthyridin-6(5H)-yl)-5-methylnicotinonitrile] | 132 |  | 84
12 | Cc1cc(C(=O)NCc2ncc(F)cn2)cnc1N1CCc2ncccc2C1 [compound 147, 6-(7,8-dihydro-5H-1,6-naphthyridin-6-yl)-N-[(5-fluoropyrimidin-2-yl)methyl]-5-methyl-pyridine-3-carboxamide] | ≥ 10000 | 52 | 
13 | Cc1cc(C(=O)NCc2ccncc2F)nnc1N1CCc2ncc(C(F)(F)F)cc2C1 [Example 496, N-((3-fluoropyridin-4-yl)methyl)-5-methyl-6-(3-(trifluoromethyl)-7,8-dihydro-1,6-naphthyridin-6(5H)-yl)pyridazine-3-carboxamide] | 37 | 102 | 
14 | Cc1cc(C(=O)NCc2ccc(-n3ccnc3)nc2)cnc1N1CCc2ncc(-c3cn(C)nc3C)cc2C1 [Example 478, N-((6-(1H-imidazol-1-yl)pyridin-3-yl)methyl)-6-(3-(1,3-dimethyl-1H-pyrazol-4-yl)-7,8-dihydro-1,6-naphthyridin-6(5/)-yl)-5-methylnicotinamide] | 379 | 50 | 
15 | Cc1c(C#N)nnc(N2CCc3ncc(-c4ccn(CC5CC5)n4)cc3C2)c1C [Example 10] | 240 |  | 56
16 | Cc1cc(C#N)cnc1N1Cc2cc(C(F)(F)F)cnc2C(C)C1 (stereo not drawn) [Example 347, 5-methyl-6-(8-methyl-3-(trifluoromethyl)-7,8-dihydro-1,6-naphthyridin-6(5H)-yl)nicotinonitrile] | 992 | 82 | 
17 | Cc1c(C#N)nnc(N2CCc3ncc(-c4cnn(CCN(C)C)c4)cc3C2)c1C [Example 324, 6-(3-(1-(2-(dimethylamino)ethyl)-1H-pyrazol-4-yl)-7,8-dihydro-1,6-naphthyridin-6(5H)-yl)-4,5-dimethylpyridazine-3-carbonitrile] | 1070 | 70 | 
18 | Cc1cc(C#N)cnc1N1CCc2ncc(Nc3cc(F)cc(F)c3F)cc2C1 [compound 116, 5-methyl-6-[3-(2,3,5-trifluoroanilino)-7,8-dihydro-5H-1,6-naphthyridin-6-yl]pyridine-3-carbonitrile] | 336 | 95 | 
19 | [2H]C1([2H])Cc2ncc(Nc3ccccc3F)cc2C([2H])([2H])N1c1ncc(C#N)cc1C [Example 612] | 24 | 91 | 
20 | Cc1nc(Cl)c(C)c(N2CCc3ncc(N)cc3C2)n1 [compound 213, 6-(6-chloro-2,5-dimethylpyrimidin-4-yl)-5,6,7,8-tetrahydro-1,6-naphthyridin-3-amine] | 1890 |  | 94
21 | Cc1cc(C(=O)N2CC(CO)(CO)C2)nnc1N1CCc2ncc(CC(F)(F)F)cc2C1 [Example 584, (3,3-bis(hydroxymethyl)azetidin-1-yl)(5-methyl-6-(3-(2,2,2-trifluoroethyl)-7,8-dihydro-1,6-naphthyridin-6(5H)-yl)pyridazin-3-yl)methanone] | 533 | 91 | 
22 | Cc1cc(C(=O)NC23CC(F)(C2)C3)cnc1N1CCc2ncccc2C1 [compound 124, 6-(7,8-dihydro-5H-1,6-naphthyridin-6-yl)-N-(3-fluoro-1-bicyclo[1.1.1]pentanyl)-5-methyl-pyridine-3-carboxamide] | 2170 | 78 | 
23 | Cc1cc(C(=O)N2CC(F)(F)C2)nnc1N1CCc2ncc(CC(F)(F)F)cc2C1 [Example 583, (3,3-difluoroazetidin-1-yl)(5-methyl-6-(3-(2,2,2-trifluoroethyl)-7,8-dihydro-1,6-naphthyridin-6(5H)-yl)pyridazin-3-yl)methanone] | 121 | 91 | 
24 | Cc1nc(Cl)c(C)c(N2CCc3ncc(-c4cncs4)cc3C2)n1 [compound 94, 5-[6-(6-chloro-2,5-dimethyl-pyrimidin-4-yl)-7,8-dihydro-5H-1,6-naphthyridin-3-yl]thiazole] | 96.9 | 91 | 
25 | Cc1cc(C(=O)N2CCC2)nnc1N1CCc2ncc(N3CCO[C@H](C)C3)cc2C1 [Example 537, (R)-azetidin-1-yl(5-methyl-6-(3-(2-methylmorpholino)-7,8-dihydro-1,6-naphthyridin-6(5H)-yl)pyridazin-3-yl)methanone] | 131 | 96 | 
26 | Cc1cc(C#N)nnc1N1CCc2ncc(C(C)(O)C(F)(F)F)cc2C1 (stereo not drawn) [Example 424, 5-methyl-6-(3-(1,1,1-trifluoro-2-hydroxypropan-2-yl)-7,8-dihydro-1,6-naphthyridin-6(5H)-yl)pyridazine-3-carbonitrile] | 1430 | 86 | 
27 | [2H]C([2H])([2H])c1cnc2c(c1)CN(c1nnc(C(=O)N3CC4(COC4)C3)cc1C)CC2 [Example 577, (5-methyl-6-(3-(methyl-d3)-7,8-dihydro-1,6-naphthyridin-6(5H)-yl)pyridazin-3-yl)(2-oxa-6-azaspiro[3.3]heptan-6-yl)methanone] | 109 | 70 | 
28 | Cc1cc(C(=O)NC2CCc3ncccc3C2)nnc1N1CCc2ncc(C(F)(F)F)cc2C1 (stereo not drawn) [Example 501, 5-methyl-N-(5,6,7,8-tetrahydroquinolin-6-yl)-6-(3-(trifluoromethyl)-7,8-dihydro-1,6-naphthyridin-6(5H)-yl)pyridazine-3-carboxamide] | 127 | 109 | 
29 | Cc1nc(Cl)c(C)c(N2CCc3ncc(Nc4cc(F)ccc4F)cc3C2)n1 [compound 88, 6-(6-chloro-2,5-dimethyl-pyrimidin-4-yl)-N-(2,5-difluorophenyl)-7,8-dihydro-5H-1,6-naphthyridin-3-amine] | 731 | 86 | 
30 | Cc1cc(C(=O)NCc2csc3ccccc23)cnc1N1CCc2ncc(-c3cn(C)nc3C)cc2C1 [Example 452, N-(benzo[b]thiophen-3-ylmethyl)-6-(3-(1,3-dimethyl-1H-pyrazol-4-yl)-7,8-dihydro-1,6-naphthyridin-6(5H)-yl)-5-methylnicotinamide] | 1790 | 89 | 
